System: CYP3A4
Assay: Midazolam drug-drug interaction assessment
Conditions: 2 mg midazolam with third once-weekly 400-mg dose of MK-8507 vs midazolam alone
Method: Study 2 (protocol MK-8507-002) was a randomized, serial, 3-panel (A to C), single- and multiple-QW rising-dose trial. Single doses of 400, 800, and 1,200 mg MK-8507 or placebo tablet formulation were administered on day 1 to panels A, B, and C, respectively, to continue dose escalation beyond the dose range in study 1. Following a washout period of 3 weeks, the multiple-dose portion of the trial began. Participants in panels A, B, and C received QW doses of 100, 200, or 400 mg MK-8507 or placebo for 3 weeks (i.e., on days 22, 29, and 36), respectively. […] The PK profile of midazolam following a single oral dose alone or after multiple oral dose administration of MK-8507 was also evaluated. […]
Plasma samples collected for midazolam assay were analyzed by Syneos Health (Québec, Canada). […] The lower limit of quantitation was 20.00 pg/mL, and the analytical range was 20.00 to 20,000.00 pg/mL.
PK parameter values were calculated by noncompartmental analyses using the software Phoenix WinNonlin Professional (version 6.3) (Certara, Princeton, NJ, USA). […] AUC0–∞ and AUC0–168hr were calculated using the linear-trapezoidal method for ascending concentrations and the log-trapezoidal method for descending concentrations (linear up/log down). […]

For `Cc1ncc2n1-c1ccc(Cl)cc1C(c1ccccc1F)=NC2` [Midazolam, midazolam], the “decrease in midazolam AUC when coadministered with MK-8507” value was 12% and the “decrease in midazolam Cmax when coadministered with MK-8507” value was 19%.

— paper PMC8597757, “Pharmacokinetic and Safety Profile of the Novel HIV Nonnucleoside Reverse Transcriptase Inhibitor MK-8507 in Adults without HIV” (Antimicrobial Agents and Chemotherapy, 2021)
